Experimental data as given in PubChem BioAssay AID1963844 (Molecular Pharmacology Branch, DTP, NCI, 2024).
Several values for one entry are separate records, joined by “and”; a condition that tells them apart may be missing. Identical values can stand only once.

Tested on: 422866-222-R5-J1-PDC complex spheroid viability
Experiment: Anticancer human tumor 422866-222-R5-J1-PDC patient-derived pancreatic adenocarcinoma cell line growth inhibition [POLQ]
Conditions: for viability, T/C: stronger effect = lower value
Protocol: Multicellular complex tumor spheroid response to Polymerase (POL) inhibitors (novobiocin, ART-558, RP6685) in combination with a variety of drugs and investigational agents in selected tumor cell lines
The POL inhibitors (novobiocin, ART-558, and RP6685) were evaluated both individually and in combination with standard of care and investigational anticancer small molecules within a complex spheroid model of solid tumors. . Complex spheroids include a stromal component modeled by human endothelial cells (HUVEC) and fibroblasts modeled by human mesenchymal stem cells (MSCs). The concentration ranges selected for each drug and investigational agent were based upon clinically achievable concentrations if the clinical Cmax of the agent was known.
Compounds. The drugs and investigational agents: novobiocin (NSC847541), ART-558 (NSC835418), RP-6685 (NSC848927), peposertib (NSC802822), ceralasertib (NSC780249), elimusertib (NSC800525), camonsertib (NSC841442), AZD-1390 (NSC803789), olaparib (NSC753686), talazoparib (NSC767125), rucaparib (NSC756644), sotorasib (NSC818433), MRTX-1133 (NSC836407), SN-38 (NSC673596), topotecan (NSC609699), epotoside (NSC141540), doxorubicin (NSC123127), gemcitabine (NSC613327), 5-fluorouracil (NSC19893), paclitaxel (NSC125973), vemurafenib (NSC761431), MSA-2 (NSC828583), SN-011 (NSC837082), adavosertib (NSC754352), prexasertib (NSC758257), carboplatin (NSC241240) and oxaliplatin (NSC266046), were obtained from the National Cancer Institute (NCI) Developmental Therapeutics Program Chemical Repository (21). The FDA-approved anticancer drug set is available from the Developmental Therapeutics Program at https://dtp.cancer.gov/organization/dscb/obtaining/. […] The stock solutions were prepared in dimethyl sulfoxide (DMSO, Sigma-Aldrich, St. Louis, MO, cat. D2650), except for the platinum compounds which were prepared in saline (Quality Biological, Gaithersburg, MD, cat. 114-055-101), at 800-fold the tested concentration and stored at -70 degrees C prior to their use. All drugs and investigational agents were tested over a range starting from a high concentration at or near the clinical Cmax and decreasing in half-log increments. If the clinical Cmax for an agent had not been determined, the highest concentration tested was 10 microM, except for SN-38, which was tested at a high concentration of 1 microM.
Cell Culture. All cells were maintained in an incubator at 37 degrees C and 5% CO2 with 95% humidity. The PDC lines were cultured according to standard operating procedures established by the NCI PDMR (https://pdmr.cancer.gov). Table 3 of the manuscript, lists the cell lines along with the number of the three cell types plated to form the mct-spheroids and media for tumor cell growth. After thawing, all PDC lines, except 997537-175-T-J1-PDC and 415267-285-R-J2-PDC, were cultured in Matrigel-coated flasks prepared with a working solution of 1X Ham's F-12 nutrient mix, without supplementation (Thermo Fisher Scientific, cat. 11765054), 100 U/mL penicillin-streptomycin (Thermo Fisher Scientific, cat. 15140122), and 2.5% Matrigel (Corning Inc., Corning, NY, cat. 354248) for the first three passages. The two PDC lines 997537-175-T-J1-PDC and 415267-285-R-J2-PDC were cultured on uncoated flasks. The 857933-349-R-J2-PDC line was cultured in 6C/Colon 1B media containing advanced DMEM/F-12 (Thermo Fisher Scientific, cat. 12634028), 10 mM HEPES (Thermo Fisher Scientific, cat. 15630080), 1X GlutaMAX supplement (Thermo Fisher Scientific, cat. 35050061), 0.1 mg/mL primocin (InvivoGen, San Diego, CA, cat. ant-pm-2), 10% defined fetal bovine serum, heat inactivated (HyClone Laboratories Inc., Logan, UT, cat. SH30070.03HI), 50% L-WRN conditioned media (ATCC, cat. CRL-3276), 1.25 mM N-Acetyl-L-cysteine (Sigma-Aldrich, cat. A9165), 10 mM nicotinamide (Sigma-Aldrich, cat. N0636), 1X B-27 supplement (Thermo Fisher Scientific, cat. 17504044), 1X N-2 supplement (Thermo Fisher Scientific, cat. […]

[1] = curve of first compound, second compound 0.0316 µM
[2] = curve of first compound, second compound 0.1 µM
[3] = curve of first compound, second compound 0.316 µM
[4] = curve of first compound, second compound 1 µM
[5] = curve of first compound, second compound 3.16 µM
[6] = curve of first compound, second compound 10 µM
[7] = second compound 0.0316 µM, first compound 0.0316 µM
[8] = second compound 0.0316 µM, first compound 0.1 µM
[9] = second compound 0.0316 µM, first compound 0.316 µM
[10] = second compound 0.0316 µM, first compound 1 µM
[11] = second compound 0.0316 µM, first compound 3.16 µM
[12] = second compound 0.0316 µM, first compound 10 µM
[13] = second compound 0.1 µM, first compound 0.0316 µM
[14] = second compound 0.1 µM, first compound 0.1 µM
[15] = second compound 0.1 µM, first compound 0.316 µM
[16] = second compound 0.1 µM, first compound 1 µM
[17] = second compound 0.1 µM, first compound 3.16 µM
[18] = second compound 0.1 µM, first compound 10 µM
[19] = second compound 0.316 µM, first compound 0.0316 µM
[20] = second compound 0.316 µM, first compound 0.1 µM
[21] = second compound 0.316 µM, first compound 0.316 µM
[22] = second compound 0.316 µM, first compound 1 µM
[23] = second compound 0.316 µM, first compound 3.16 µM
[24] = second compound 0.316 µM, first compound 10 µM
[25] = second compound 1 µM, first compound 0.0316 µM
[26] = second compound 1 µM, first compound 0.1 µM
[27] = second compound 1 µM, first compound 0.316 µM
[28] = second compound 1 µM, first compound 1 µM
[29] = second compound 1 µM, first compound 3.16 µM
[30] = second compound 1 µM, first compound 10 µM
[31] = second compound 3.16 µM, first compound 0.0316 µM
[32] = second compound 3.16 µM, first compound 0.1 µM
[33] = second compound 3.16 µM, first compound 0.316 µM
[34] = second compound 3.16 µM, first compound 1 µM
[35] = second compound 3.16 µM, first compound 3.16 µM
[36] = second compound 3.16 µM, first compound 10 µM
[37] = second compound 10 µM, first compound 0.0316 µM
[38] = second compound 10 µM, first compound 0.1 µM
[39] = second compound 10 µM, first compound 0.316 µM
[40] = second compound 10 µM, first compound 1 µM
[41] = second compound 10 µM, first compound 3.16 µM
[42] = second compound 10 µM, first compound 10 µM
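Also: spheroids exposed to compounds for one week before readout.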
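For viability, T/C in this document: percent of DMSO vehicle wells luminescence so 100% = untreated viability.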

## O=C(Nc1ccc(O)c(NS(=O)(=O)c2ccc(F)cc2)c1)c1ccc(-c2ccccc2)cc1 + Cc1cccc(N(C)C(=O)C2C(O)CCN2c2nc(C)cc(C(F)(F)F)c2C#N)c1
[1]
  IC50: > 10 µM
[2]
  IC50: > 10 µM
[3]
  IC50: > 10 µM
[4]
  IC50: > 10 µM
[5]
  IC50: > 10 µM
[6]
  IC50: > 10 µM
[7]
  viability, T/C: 94.2%
[8]
  viability, T/C: 89.3%
[9]
  viability, T/C: 73.9%
[10]
  viability, T/C: 89.3%
[11]
  viability, T/C: 99.8%
[12]
  viability, T/C: 121%
[13]
  viability, T/C: 85.4%
[14]
  viability, T/C: 89.8%
[15]
  viability, T/C: 89%
[16]
  viability, T/C: 91.3%
[17]
  viability, T/C: 95.5%
[18]
  viability, T/C: 116%
[19]
  viability, T/C: 94.3%
[20]
  viability, T/C: 99%
[21]
  viability, T/C: 90.9%
[22]
  viability, T/C: 101%
[23]
  viability, T/C: 90.7%
[24]
  viability, T/C: 106%
[25]
  viability, T/C: 96%
[26]
  viability, T/C: 94.5%
[27]
  viability, T/C: 99.2%
[28]
  viability, T/C: 88.9%
[29]
  viability, T/C: 86.3%
[30]
  viability, T/C: 113%
[31]
  viability, T/C: 97.2%
[32]
  viability, T/C: 91.8%
[33]
  viability, T/C: 89.2%
[34]
  viability, T/C: 92.9%
[35]
  viability, T/C: 94.2%
[36]
  viability, T/C: 118%
[37]
  viability, T/C: 71.9%
[38]
  viability, T/C: 82.3%
[39]
  viability, T/C: 87.3%
[40]
  viability, T/C: 86.8%
[41]
  viability, T/C: 97.6%
[42]
  viability, T/C: 103%

## CCCS(=O)(=O)Nc1ccc(F)c(C(=O)c2c[nH]c3ncc(-c4ccc(Cl)cc4)cc23)c1F
Compound 0.0316 µM
  viability, T/C: 102% and 117% and 105%
Compound 0.1 µM
  viability, T/C: 115% and 138% and 140%
Compound 0.316 µM
  viability, T/C: 130% and 119% and 128%
Compound 1 µM
  viability, T/C: 163% (2×) and 148%
Compound 3.16 µM
  viability, T/C: 194% and 210% and 192%
Curve of compound
  IC50: > 10 µM

## C=CC(=O)N1CCN(c2nc(=O)n(-c3c(C)ccnc3C(C)C)c3nc(-c4c(O)cccc4F)c(F)cc23)C(C)C1 (stereo not given) + Cc1cccc(N(C)C(=O)C2C(O)CCN2c2nc(C)cc(C(F)(F)F)c2C#N)c1
[1]
  IC50: < 0.0316 µM
[2]
  IC50: < 0.0316 µM
[3]
  IC50: < 0.0316 µM
[4]
  IC50: < 0.0316 µM
[5]
  IC50: < 0.0316 µM
[6]
  IC50: < 0.0316 µM
[7]
  viability, T/C: 29.6%
[8]
  viability, T/C: 26.5%
[9]
  viability, T/C: 24.8%
[10]
  viability, T/C: 22.2%
[11]
  viability, T/C: 23.5%
[12]
  viability, T/C: 27%
[13]
  viability, T/C: 27.8%
[14]
  viability, T/C: 25.2%
[15]
  viability, T/C: 25%
[16]
  viability, T/C: 23.5%
[17]
  viability, T/C: 21.2%
[18]
  viability, T/C: 29.3%
[19]
  viability, T/C: 34.9%
[20]
  viability, T/C: 22.1%
[21]
  viability, T/C: 25.3%
[22]
  viability, T/C: 26%
[23]
  viability, T/C: 22.8%
[24]
  viability, T/C: 25.5%
[25]
  viability, T/C: 30.3%
[26]
  viability, T/C: 25.7%
[27]
  viability, T/C: 26.1%
[28]
  viability, T/C: 21.8%
[29]
  viability, T/C: 26.7%
[30]
  viability, T/C: 27.4%
[31]
  viability, T/C: 32.3%
[32]
  viability, T/C: 28.7%
[33]
  viability, T/C: 31.4%
[34]
  viability, T/C: 25.9%
[35]
  viability, T/C: 23.7%
[36]
  viability, T/C: 25.7%
[37]
  viability, T/C: 35.3%
[38]
  viability, T/C: 28%
[39]
  viability, T/C: 25.1%
[40]
  viability, T/C: 26%
[41]
  viability, T/C: 32%
[42]
  viability, T/C: 28.3%
